This note sets out measurements from PubChem BioAssay AID330 (DTP/NCI, 2004).

In the assay the test system is P388 leukemia ip, CD2F1 mice, survival T/C. Description: NCI In Vivo Anticancer Drug Screen. Data for tumor model P388 Leukemia (intraperitoneal) in CD2F1 (CDF1) mice. The conditions noted are these: endpoint: median survival time, higher = longer survival. Put shortly: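 Mice carrying the transplanted tumor received test compound or vehicle. Survival was recorded in each group, and the value is the treated-group measurement divided by that of the vehicle-treated control group.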

[1] abbreviates: dose: 60.0 mg/kg/injection, schedule: Q01DX005 (ip), vehicle: Klucel (hydroxypropylcellulose) (HPC).
The mark [2] stands for this setting: dose: 120.0 mg/kg/injection, schedule: Q01DX005 (ip), vehicle: Klucel (hydroxypropylcellulose) (HPC).
The mark [3] stands for this setting: dose: 240.0 mg/kg/injection, schedule: Q01DX005 (ip), vehicle: Klucel (hydroxypropylcellulose) (HPC).
The mark [4] stands for this setting: dose: 50.0 mg/kg/injection, schedule: Q01DX009 (ip), vehicle: saline with Tween-80.
Setting [5] is: dose: 100.0 mg/kg/injection, schedule: Q01DX009 (ip), vehicle: saline with Tween-80.
[6] abbreviates: dose: 200.0 mg/kg/injection, schedule: Q01DX009 (ip), vehicle: Klucel (hydroxypropylcellulose) (HPC).

Molecules are shown by their SMILES. Several values for one entry are separate records, joined by “and”; a condition that tells them apart may be missing. Equal values may be shown once. Toxic doses and inconclusive results are not listed.

In the case of `O=C1S/C(=C2\C(=O)N(CN3CCCCC3)c3ccc(Br)cc32)C(=O)N1CN1CCCCC1`, the T/C under setting [1] was 100 % of control, the T/C under setting [2] is 101 % of control and the T/C under setting [3] was 99 % of control.
On to `COC1=C(N=[N+]=[N-])C(=O)c2ncccc2C1=O`, for which the T/C was 100 % of control (dose: 0.63 mg/kg/injection, schedule: Q01DX009 (ip), vehicle: DMSO); 100 % of control (dose: 1.25 mg/kg/injection, schedule: Q01DX009 (ip), vehicle: DMSO); 95 % of control (dose: 1.56 mg/kg/injection, schedule: Q01DX009 (ip), vehicle: saline with Tween-80); 107 % of control (dose: 2.5 mg/kg/injection, schedule: Q01DX009 (ip), vehicle: DMSO); 98 % of control (dose: 3.12 mg/kg/injection, schedule: Q01DX009 (ip), vehicle: saline with Tween-80); 100 % of control (dose: 5.0 mg/kg/injection, schedule: Q01DX009 (ip), vehicle: DMSO).
Turning to `COc1cccc(C2(O)CCCc3c(C)ccnc32)c1` (stereo not given), the T/C reads like this: under setting [1], 103 % of control; under setting [2], 112 % of control; under setting [3], 115 % of control.
As for `CC(=O)OC1C(C)OC(OC(=O)C2CCC3C(C2)OC2(CC(OC(=O)/C=C/c4ccccc4)C(C)CO2)C32CO2)C(OC2OC(C)C(O)C(O)C2O)C1O` (stereo not given), the T/C is 96 % of control (dose: 2.5 mg/kg/injection, schedule: Q01DX005 (ip), vehicle: saline + alcohol); 102 % of control and 107 % of control (dose: 5.0 mg/kg/injection, schedule: Q01DX005 (ip), vehicle: saline + alcohol); 112 % of control (dose: 10.0 mg/kg/injection, schedule: Q01DX005 (ip), vehicle: saline + alcohol).
As for `CNC(=O)OCc1ccccc1-c1ccccc1`, the T/C is 98 % of control under setting [4]; 97 % of control under setting [5]; 95 % of control (dose: 200.0 mg/kg/injection, schedule: Q01DX009 (ip), vehicle: saline with Tween-80).
As to `NNC(=O)CCn1[nH]c(=O)c(Cl)c(Cl)c1=O`, the T/C reads like this: (dose: 50.0 mg/kg/injection, schedule: Q01DX005 (ip), vehicle: saline with Tween-80) 100 % of control; (dose: 100.0 mg/kg/injection, schedule: Q01DX005 (ip), vehicle: saline with Tween-80) 100 % of control; (dose: 200.0 mg/kg/injection, schedule: Q01DX005 (ip), vehicle: saline with Tween-80) 100 % of control.
Consider `CNC1C(=O)C(C)C(O)(C(CC(C)C(O)/C=C/C=C/CNC(=O)C(C)(C)C(O)\C(C)=C/C=C\C=C\Cc2cnc(C)o2)OC)C12C(=O)OC2COC` (stereo not given) (tested in a mixture with another compound), for which the T/C by setting is: (dose: 1.0 mg/kg/injection, schedule: Q01DX005 (ip), vehicle: DMSO) 104 % of control; (dose: 2.0 mg/kg/injection, schedule: Q01DX005 (ip), vehicle: DMSO) 93 % of control.
For the compound `CC1CCC[N-]C1.CC1CCC[N-]C1.CC1CCC[N-]C1.CC1CCC[N-]C1.[Cl][Rh][Cl]` (stereo not given), the T/C is 122 % of control (dose: 1.5 mg/kg/injection, schedule: Q01DX009 (ip), vehicle: saline) and 152 % of control (dose: 6.0 mg/kg/injection, schedule: Q01DX009 (ip), vehicle: saline).
For `C=CCC1=CC2(OC)C(=O)C(OC)(OC)C1C1C(OC)(OC)C(=O)C(OC)=CC12CC=C` (stereo not given), the T/C was 114 % of control and 93 % of control (dose: 18.75 mg/kg/injection, schedule: Q01DX009 (ip), vehicle: Klucel (hydroxypropylcellulose) (HPC)); 99 % of control (dose: 37.5 mg/kg/injection, schedule: Q01DX009 (ip), vehicle: Klucel (hydroxypropylcellulose) (HPC)); 102 % of control and 112 % of control (dose: 75.0 mg/kg/injection, schedule: Q01DX009 (ip), vehicle: Klucel (hydroxypropylcellulose) (HPC)); 94 % of control (dose: 150.0 mg/kg/injection, schedule: Q01DX009 (ip), vehicle: Klucel (hydroxypropylcellulose) (HPC)); 94 % of control under setting [6].
`CCCCn1cnc2c(=S)nc(N)[nH]c21`: the T/C by setting is: (dose: 25.0 mg/kg/injection, schedule: Q04DX003 (ip), vehicle: saline with Tween-80) 109 % of control; (dose: 50.0 mg/kg/injection, schedule: Q04DX003 (ip), vehicle: saline with Tween-80) 118 % of control; (dose: 400.0 mg/kg/injection, schedule: Q04DX003 (ip), vehicle: saline with Tween-80) 90 % of control.
On to `CC1(c2cccc(N(CCCl)CCCl)c2)NC(=O)NC1=O` (stereo not given), for which the T/C was 166 % of control (dose: 25.0 mg/kg/injection, schedule: Q01DX009 (ip), vehicle: saline with Tween-80); 184 % of control and 204 % of control under setting [4]; 90 % of control under setting [5].
Regarding `CCCCOC(=O)NC(=O)c1cc2cc(Br)cc(Br)c2oc1=O`, the T/C is, setting by setting: (dose: 60.0 mg/kg/injection, schedule: Q01DX005 (ip), vehicle: saline with Tween-80) 94 % of control; (dose: 120.0 mg/kg/injection, schedule: Q01DX005 (ip), vehicle: saline with Tween-80) 101 % of control; (dose: 240.0 mg/kg/injection, schedule: Q01DX005 (ip), vehicle: saline with Tween-80) 92 % of control.
With `COc1ccc(/C(O)=C/c2nc3ccc(Cl)cc3[nH]c2=O)cc1`, the T/C is, setting by setting: under setting [1], 101 % of control; under setting [2], 99 % of control; under setting [3], 91 % of control.
Take `O=C(/C=N/O)Nc1ccccc1I`: the T/C runs as follows: (dose: 50.0 mg/kg/injection, schedule: Q01DX005 (ip), vehicle: Klucel (hydroxypropylcellulose) (HPC)) 100 % of control; (dose: 100.0 mg/kg/injection, schedule: Q01DX005 (ip), vehicle: Klucel (hydroxypropylcellulose) (HPC)) 98 % of control; (dose: 200.0 mg/kg/injection, schedule: Q01DX005 (ip), vehicle: Klucel (hydroxypropylcellulose) (HPC)) 115 % of control.
Turning to `O=C(O)C1CCC[N-]C1.O=C(O)C1CCC[N-]C1.[Cl][Pt+2][Cl]` (stereo not given), the T/C runs as follows: (dose: 5.0 mg/kg/injection, schedule: Q01DX009 (ip), vehicle: saline with Tween-80) 100 % of control; (dose: 10.0 mg/kg/injection, schedule: Q01DX009 (ip), vehicle: saline with Tween-80) 104 % of control; (dose: 20.0 mg/kg/injection, schedule: Q01DX009 (ip), vehicle: saline with Tween-80) 109 % of control.
Regarding `COc1cc2c[n+]3ccccc3c(N)c2cc1OC`, the T/C is 110 % of control (dose: 50.0 mg/kg/injection, schedule: Q04DX003 (ip), vehicle: distilled water + Tween-80); 106 % of control (dose: 100.0 mg/kg/injection, schedule: Q04DX003 (ip), vehicle: distilled water + Tween-80); 97 % of control (dose: 200.0 mg/kg/injection, schedule: Q04DX003 (ip), vehicle: distilled water + Tween-80).
Regarding `COC(CN(C)C)C(Cl)(Cl)Cl` (stereo not given), the T/C is 103 % of control (dose: 50.0 mg/kg/injection, schedule: Q01DX009 (ip), vehicle: Klucel (hydroxypropylcellulose) (HPC)); 108 % of control (dose: 100.0 mg/kg/injection, schedule: Q01DX009 (ip), vehicle: Klucel (hydroxypropylcellulose) (HPC)); 101 % of control under setting [6].
Regarding `CN1CCC(CCl)C(c2ccccc2)C1` (stereo not given), the T/C by setting is: (dose: 12.5 mg/kg/injection, schedule: Q01DX005 (ip), vehicle: saline) 100 % of control; (dose: 25.0 mg/kg/injection, schedule: Q01DX005 (ip), vehicle: saline) 100 % of control; (dose: 50.0 mg/kg/injection, schedule: Q01DX005 (ip), vehicle: saline) 107 % of control.
For the compound `CC(=O)N1CN2CN(C1)CN(C(C)=O)C2`, the T/C runs as follows: (dose: 100.0 mg/kg/injection, schedule: Q01DX001 (ip), vehicle: saline) 105 % of control; (dose: 200.0 mg/kg/injection, schedule: Q01DX001 (ip), vehicle: saline) 104 % of control; (dose: 400.0 mg/kg/injection, schedule: Q01DX001 (ip), vehicle: saline) 107 % of control.
